This is an account of results in patent US20160046610A1, “3-HETEROARYL SUBSTITUTED INDAZOLES” (BAYER PHARMA AKTIENGESELLSCHAFT, priority 2013, published 2016).

Assay [1] concerns the target T1, catalytic domain of human Bub1 (amino acids 704-1085) (Homo sapiens, UniProt O43683).
T1 construct: catalytic domain of human Bub1 (amino acids 704-1085); His6 (N); made in house; host or cells: Hi5 insect cells
As to the kind of experiment: Bub1 kinase assay (TR-FRET). In kind it is biochemical. On the procedure: To this end, 100-fold concentrated compound solutions (in DMSO) were previously prepared by serial dilution (1:3.4) of 2 mM stocks in a clear low volume 384-well source microtiter plate (Greiner Bio-One, Frickenhausen, Germany), from which 50 nl of compounds were transferred into a black low volume test microtiter plate from the same supplier. […] The resulting mixture (5 μL final volume) was incubated at 22° C. during 60 min., and the reaction was stopped by the addition of 5 μL of an aqueous EDTA-solution (50 mM EDTA, in 100 mM HEPES pH 7.5 and 0.2% (w/v) bovine serum albumin) which also contained the TR-FRET detection reagents (0.2 μM streptavidin-XL665 [Cisbio Bioassays, Codolet, France] and 1 nM anti-phosho-Serine antibody [Merck Millipore, cat. #35-001] and 0.4 nM LANCE EU-W1024 labeled anti-mouse IgG antibody [Perkin-Elmer, product no. AD0077, alternatively a Terbium-cryptate-labeled anti-mouse IgG antibody from Cisbio Bioassays can be used]). The stopped reaction mixture was further incubated 1 h at 22° C. in order to allow the formation of complexes between peptides and detection reagents. Subsequently, the amount of product was evaluated by measurement of the resonance energy transfer from the Eu-chelate-antibody complex recognizing the Phosphoserine residue to the streptavidin-XL665 bound to the biotin moiety of the peptide. […] IC50 values were calculated by fitting the normalized inhibition data to a 4-parameter logistic equation (Minimum, Maximum, IC50, Hill; Y=Max+(Min−Max)/(1+(X/IC50)Hill)).

Assay [2] deals with HeLa cell line. Kind of assay: Proliferation assay (HeLa cell line), crystal violet staining. In kind it is cell-based. Particulars: Homo sapiens, 96 h, read-out: Biological Assay 2: Proliferation assay (HeLa cell line) median IC50. How it is done:
Cultivated tumor cells (cells were ordered from ATCC, except HeLa-MaTu and HeLa-MaTu-ADR, which were ordered from EPO-GmbH, Berlin) were plated at a density of 1000 to 5000 cells/well, depending on the growth rate of the respective cell line, in a 96-well multititer plate in 200 μL of their respective growth medium supplemented 10% fetal calf serum. After 24 hours, the cells of one plate (zero-point plate) were stained with crystal violet (see below), while the medium of the other plates was replaced by fresh culture medium (200 μL), to which the test substances were added in various concentrations (0 μM, as well as in the range of 0.001-10 μM; the final concentration of the solvent dimethyl sulfoxide was 0.5%). The cells were incubated for 4 days in the presence of test substances. Cell proliferation was determined by staining the cells with crystal violet: the cells were fixed by adding 20 μl/measuring point of an 11% glutaric aldehyde solution for 15 minutes at room temperature. After three washing cycles of the fixed cells with water, the plates were dried at room temperature. The cells were stained by adding 100 μl/measuring point of a 0.1% crystal violet solution (pH 3.0). After three washing cycles of the stained cells with water, the plates were dried at room temperature. The dye was dissolved by adding 100 μl/measuring point of a 10% acetic acid solution. Absorption was determined by photometry at a wavelength of 595 nm. The change of cell number, in percent, was calculated by normalization of the measured values to the absorption values of the zero-point plate (=0%) and the absorption of the untreated (0 μm) cells (=100%). The IC50 values were determined by means of a 4 parameter fit using the company's own software.

Setting [3] is: TR-FRET, recombinant catalytic domain of human Bub1, ATP 10 μM, peptide substrate 1 μM, median value, read-out: Biological Assay 1: Bub1 kinase assay median IC50.

SMILES strings stand for the structures. Read-outs that look alike come from different tables or passages of the source. A value given as a limit tells only on which side of the number the result lay.

T1 sequence (O43683 704-1085): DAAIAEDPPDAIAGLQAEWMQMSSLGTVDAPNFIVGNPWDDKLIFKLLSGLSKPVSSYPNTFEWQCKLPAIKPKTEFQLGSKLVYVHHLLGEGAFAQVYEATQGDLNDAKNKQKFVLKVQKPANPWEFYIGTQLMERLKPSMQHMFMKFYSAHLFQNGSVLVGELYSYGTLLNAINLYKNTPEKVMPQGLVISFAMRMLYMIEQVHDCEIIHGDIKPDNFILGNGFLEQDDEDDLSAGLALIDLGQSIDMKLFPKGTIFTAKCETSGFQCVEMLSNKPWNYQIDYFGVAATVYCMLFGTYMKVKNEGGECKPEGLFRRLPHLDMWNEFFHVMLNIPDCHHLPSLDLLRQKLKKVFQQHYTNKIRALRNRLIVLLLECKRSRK

With `COc1ccc(Cn2nc(-c3ncc(OC)c(Nc4cn[nH]c4)n3)c3ccccc32)cc1` [Example 2-10-1, 5-methoxy-2-[1-(4-methoxybenzyl)-1H-indazol-3-yl]-N-(1H-pyrazol-4-yl)pyrimidin-4-amine], the IC50 in assay [1] stood at 20 nM; in assay [2] (HeLa) it was 3400 nM.
As for `CCOc1cc(F)c(Cn2nc(-c3ncc(OC)c(Nc4cn[nH]c4)n3)c3ccccc32)c(F)c1` [Example 2-10-2, 2-[1-(4-ethoxy-2,6-difluorobenzyl)-1H-indazol-3-yl]-5-methoxy-N-(1H-pyrazol-4-yl)pyrimidin-4-amine], the IC50 is 4.7 nM in assay [1] (setting [3]) and above 10000 nM in assay [2] (HeLa).
As for `Fc1ccc(Cn2nc(-c3cc(Nc4ccncn4)ccn3)c3ccccc32)c(F)c1` [Example 2-11-1, N-{2-[1-(2,4-difluorobenzyl)-1H-indazol-3-yl]-pyridin-4-yl}pyrimidin-4-amine], the IC50 is 66 nM in assay [1] and above 10000 nM in assay [2] (HeLa cells, incubated for 4 days with test substance, crystal violet staining, median value).
Regarding `CCOc1cc(F)c(Cn2nc(-c3ncc(OC)c(Nc4ccccc4C(N)=O)n3)c3ccccc32)c(F)c1` [Example 2-12-1, 2-({2-[1-(4-ethoxy-2,6-difluorobenzyl)-1H-indazol-3-yl]-5-methoxypyrimidin-4-yl}amino)benzamide], the IC50 in assay [1] (setting [3]) is 920 nM; in assay [2] (HeLa), above 10000 nM.
`CCOc1cc(F)c(Cn2nc(-c3ncc(OC)c(Nc4ccccc4C(=O)NC)n3)c3ccccc32)c(F)c1` [Example 2-12-2, 2-({2-[1-(4-ethoxy-2,6-difluorobenzyl)-1H-indazol-3-yl]-5-methoxypyrimidin-4-yl}amino)-N-methylbenzamide]: the IC50 in assay [1] (setting [3]) and in assay [2] (HeLa) was 1100 nM in each case.
On to `CCOc1cc(F)c(Cn2nc(-c3ncc(OC)c(Nc4ccc(F)cc4C(=O)NC)n3)c3ccccc32)c(F)c1` [Example 2-12-3, 2-({2-[1-(4-ethoxy-2,6-difluorobenzyl)-1H-indazol-3-yl]-5-methoxypyrimidin-4-yl}amino)-5-fluoro-N-methylbenzamide], for which the results for the IC50 in assay [1] (setting [3]) and in assay [2] (HeLa) were 6800 nM and 1200 nM, respectively.
For `CCOc1cc(F)c(Cn2nc(-c3ncc(OC)c(Nc4ccc(F)cc4C(N)=O)n3)c3ccccc32)c(F)c1` [Example 2-12-4, 2-({2-[1-(4-ethoxy-2,6-difluorobenzyl)-1H-indazol-3-yl]-5-methoxypyrimidin-4-yl}amino)-5-fluorobenzamide], the values for the IC50 in assay [1] (setting [3]) and in assay [2] (HeLa) were 110 nM and 2400 nM, respectively.
